The values that follow come from US11116771B2, “G protein-coupled receptor (GPCR) modulation by imipridones” (Oncoceutics, Inc., priority 2016, dated 2021).

Values after ≈ are worked out from the molar mass of the structure shown. “Also recorded” adds a separate entry of the source. Like-named read-outs stand apart in the source and are kept apart here.

For data set [1], the system named is DRD2 (short and long isoforms). The data set can be described thus: β-arrestin recruitment GPCR reporter assay, DRD2. It counts as cell-based.
Another data set addresses DRD3 (Homo sapiens, UniProt P35462). The data set can be described thus: β-arrestin recruitment GPCR reporter assay, DRD3. The data set is classed as cell-based.
The subject of data set [2] is Staphylococcus aureus ATCC 700699. The data set can be described thus: MIC by micro-broth dilution, S. aureus ATCC 700699. The settings on record: ATCC700699; for MIC90: read-out: MIC90; for MIC99: read-out: MIC99. It counts as cell-based. (In general: In broth dilution the organism is exposed to a series of concentrations in liquid medium.)
In data set [3] the test system is Staphylococcus aureus ATCC 33591. The data set can be described thus: MIC by micro-broth dilution, S. aureus ATCC 33591. The data set is classed as cell-based. To be noted: ATCC33591; for MIC90: read-out: MIC90; for MIC99: read-out: MIC99.
Another data set relates to human cancer cells. The data set can be described thus: Viability of human cancer cells at 72 hours post-treatment. The data set is classed as cell-based. The settings on record: relative to the potency of ONC201; viability of human cancer cells at 72 hours post-treatment.
The target in another data set is GPR91 (Homo sapiens, UniProt Q9BXA5). The data set can be described thus: β-arrestin recruitment GPCR reporter assay, GPR91. It counts as cell-based. For orientation: Arrestin recruitment assays detect the binding of arrestin to an activated receptor.
The test system of data set [4] is Staphylococcus aureus ATCC 29213. The data set can be described thus: MIC by micro-broth dilution, S. aureus ATCC 29213. The data set is classed as cell-based. The settings on record: ATCC29213; for MIC90: read-out: MIC90; for MIC99: read-out: MIC99.
A further data set addresses T1, GPR132 (Homo sapiens, UniProt Q9UNW8).
T1 sequence (Q9UNW8 1-380): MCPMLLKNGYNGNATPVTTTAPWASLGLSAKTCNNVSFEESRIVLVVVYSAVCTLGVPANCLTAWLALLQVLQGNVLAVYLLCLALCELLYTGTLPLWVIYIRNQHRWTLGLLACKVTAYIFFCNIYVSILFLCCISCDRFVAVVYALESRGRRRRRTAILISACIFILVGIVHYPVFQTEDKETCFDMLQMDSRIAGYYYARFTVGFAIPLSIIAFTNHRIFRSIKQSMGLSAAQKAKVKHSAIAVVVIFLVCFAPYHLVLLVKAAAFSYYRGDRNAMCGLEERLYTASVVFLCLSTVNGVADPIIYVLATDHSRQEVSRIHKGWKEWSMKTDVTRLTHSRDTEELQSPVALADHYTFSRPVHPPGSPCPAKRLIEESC
The data set can be described thus: β-arrestin recruitment GPCR reporter assay, GPR132. The data set is classed as cell-based.

Another data set relates to normal cells. The data set can be described thus: In vitro toxicity to normal cells. The data set is classed as cell-based. To be noted: FIG. 33.
A short description of data set [5]: Mouse tolerability (non-GLP oral single dose / MTD study). It counts as in vivo. The settings on record: in vivo; mouse; non-GLP oral single dose study / MTD study. The method, then: ONC212 25 mg/kg represents NOAEL in mouse and rat non-GLP oral single dose studies which is also the efficacious dose in mouse xenograft studies. […].
Dual targeting of DRD2/3 and GPR132/91 represents a novel strategy for anti-cancer efficacy without toxicity. […] […]. […] […].

A further data set deals with DRD5 (Homo sapiens, UniProt P21918). The data set can be described thus: β-arrestin recruitment GPCR reporter assay, DRD5. The data set is classed as cell-based. To be noted: arrestin recruitment reporter assay.
The test system of the next data set is GPCRs. The data set can be described thus: GPCR profiling by arrestin recruitment reporter assay (panel). The data set is classed as cell-based. To be noted: 10 μM.
Another data set concerns the target CXCR7 (Homo sapiens, UniProt P25106). The data set can be described thus: β-arrestin recruitment GPCR reporter assay, CXCR7. It counts as cell-based.
The conditions of data set [6]: Jacob et al. 2014; Wagner et al. 2015; cited from earlier work.
The next data set deals with DRD2L (Homo sapiens, UniProt P14416). The data set can be described thus: Gaddum/Schild analysis of arrestin recruitment to DRD2L. To be noted: arrestin recruitment / cAMP reporters (FIGS. 5B, 5C, 5F). The data set is classed as cell-based.
Where [7] appears, read: Staphylococcus aureus, ATCC 700699 (48 hours).
Where [8] appears, read: Staphylococcus aureus, ATCC 700699 (48 hours), read-out: MIC95.
The mark [9] stands for this setting: Staphylococcus aureus, ATCC 700699 (48 hours), read-out: MIC, Visual.
Setting [10] is: Staphylococcus aureus (ATCC 33591), methicillin resistant, read-out: MIC.
The mark [11] stands for this setting: Staphylococcus aureus, ATCC 33591, 24 hours.
[12] abbreviates: Staphylococcus aureus, ATCC 33591, 24 hours, read-out: MIC95.
Setting [13] is: Staphylococcus aureus, ATCC 33591, 24 hours, read-out: MIC, Visual.
[14] abbreviates: wild type Staphylococcus aureus (ATCC 29213), read-out: MIC.
The mark [15] stands for this setting: Staphylococcus aureus, ATCC 29213, 24 hours.
The mark [16] stands for this setting: Staphylococcus aureus, ATCC 29213, 24 hours, read-out: MIC95.
[17] abbreviates: Staphylococcus aureus, ATCC 29213, 24 hours, read-out: MIC, Visual.

Chain of DRD3 (P35462 whole entry): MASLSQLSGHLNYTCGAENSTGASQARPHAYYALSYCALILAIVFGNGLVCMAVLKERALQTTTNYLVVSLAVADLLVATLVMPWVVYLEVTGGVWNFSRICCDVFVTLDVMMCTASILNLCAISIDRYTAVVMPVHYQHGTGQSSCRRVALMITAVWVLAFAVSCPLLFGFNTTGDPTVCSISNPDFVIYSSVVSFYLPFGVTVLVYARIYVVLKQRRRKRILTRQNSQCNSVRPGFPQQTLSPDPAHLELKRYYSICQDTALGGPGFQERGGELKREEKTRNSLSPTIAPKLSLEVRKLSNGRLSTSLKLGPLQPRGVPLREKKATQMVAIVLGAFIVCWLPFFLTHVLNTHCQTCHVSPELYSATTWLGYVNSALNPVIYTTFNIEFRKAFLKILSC
Chain of CXCR7 (P25106 whole entry): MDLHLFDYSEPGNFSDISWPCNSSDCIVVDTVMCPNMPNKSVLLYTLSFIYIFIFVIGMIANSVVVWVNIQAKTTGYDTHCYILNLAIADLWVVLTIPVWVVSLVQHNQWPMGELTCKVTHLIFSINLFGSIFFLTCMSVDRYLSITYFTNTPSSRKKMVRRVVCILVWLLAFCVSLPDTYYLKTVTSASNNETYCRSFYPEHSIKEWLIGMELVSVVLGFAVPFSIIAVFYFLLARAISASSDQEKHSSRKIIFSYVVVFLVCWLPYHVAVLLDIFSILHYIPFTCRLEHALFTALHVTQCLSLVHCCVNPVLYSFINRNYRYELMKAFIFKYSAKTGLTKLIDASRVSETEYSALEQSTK
Chain of DRD2L (P14416 whole entry): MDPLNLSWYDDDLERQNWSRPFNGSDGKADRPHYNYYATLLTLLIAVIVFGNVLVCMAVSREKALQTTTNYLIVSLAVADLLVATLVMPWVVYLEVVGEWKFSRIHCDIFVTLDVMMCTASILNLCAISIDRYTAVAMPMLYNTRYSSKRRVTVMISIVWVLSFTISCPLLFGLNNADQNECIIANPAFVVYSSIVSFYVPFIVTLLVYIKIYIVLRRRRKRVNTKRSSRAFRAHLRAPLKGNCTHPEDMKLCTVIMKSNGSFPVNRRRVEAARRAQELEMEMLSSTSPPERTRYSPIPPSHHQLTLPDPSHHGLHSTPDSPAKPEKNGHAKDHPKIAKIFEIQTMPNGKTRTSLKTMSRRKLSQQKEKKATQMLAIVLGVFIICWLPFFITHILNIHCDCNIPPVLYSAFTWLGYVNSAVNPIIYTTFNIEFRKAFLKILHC
Chain of DRD5 (P21918 whole entry): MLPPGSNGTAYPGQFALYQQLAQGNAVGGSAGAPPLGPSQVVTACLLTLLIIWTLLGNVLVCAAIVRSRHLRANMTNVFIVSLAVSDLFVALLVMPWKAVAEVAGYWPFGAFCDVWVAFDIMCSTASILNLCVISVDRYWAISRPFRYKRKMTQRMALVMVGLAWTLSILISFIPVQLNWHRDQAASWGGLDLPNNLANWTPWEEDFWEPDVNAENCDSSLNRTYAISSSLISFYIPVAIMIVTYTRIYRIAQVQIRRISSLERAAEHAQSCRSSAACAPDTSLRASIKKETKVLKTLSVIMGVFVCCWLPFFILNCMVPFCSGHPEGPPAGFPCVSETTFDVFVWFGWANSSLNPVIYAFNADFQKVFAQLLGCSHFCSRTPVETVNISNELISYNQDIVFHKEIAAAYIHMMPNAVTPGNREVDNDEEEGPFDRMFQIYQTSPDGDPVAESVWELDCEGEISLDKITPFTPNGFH
Chain of GPR91 (Q9BXA5 whole entry): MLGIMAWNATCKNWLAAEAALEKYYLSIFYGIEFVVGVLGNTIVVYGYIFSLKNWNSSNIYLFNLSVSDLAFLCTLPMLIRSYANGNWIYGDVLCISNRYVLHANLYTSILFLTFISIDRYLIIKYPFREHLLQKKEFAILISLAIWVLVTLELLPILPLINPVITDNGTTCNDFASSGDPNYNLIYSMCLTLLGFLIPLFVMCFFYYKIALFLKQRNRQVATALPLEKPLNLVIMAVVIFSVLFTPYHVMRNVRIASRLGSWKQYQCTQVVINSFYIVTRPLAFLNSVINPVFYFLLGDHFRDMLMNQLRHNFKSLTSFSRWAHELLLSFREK

One may read the MIC90 as an inhibitory concentration at the 90% level, which refers to growth in some studies and to a panel of isolates in others. For orientation: MIC99 means an inhibitory concentration at the 99% level, which refers to growth in some studies and to a panel of isolates in others. As usually defined, the NOAEL is the highest tested level that showed no adverse finding. Consider `O=C1C2=C(CCN(Cc3ccccc3)C2)N2CCN=C2N1Cc1ccc(F)c(F)c1` [ONC213], for which the “GPCR activity, DRD2” value in data set [1] is “DRD2/3 inhibitor; also recorded: more than ONC201 but less than ONC206”. The “GPCR activity, DRD3” value at DRD3 was “DRD2/3 inhibitor; also recorded: more than ONC201 but less than ONC206”. Besides, the MIC90 worked out at 6.25 µg/mL (≈ 15.3 µM) in data set [2] (setting [7]), 3.13 µg/mL (≈ 7.66 µM) in [3] (setting [11]) and 12.5 µg/mL (≈ 30.6 µM) in data set [4] (setting [15]). For the same compound, the MIC was 12.5 µg/mL (≈ 30.6 µM) in [2] (setting [8]); 12.5 µg/mL (≈ 30.6 µM) in data set [2] (setting [9]); 3.13 µg/mL (≈ 7.66 µM) in data set [3] (setting [10]); 6.25 µg/mL (≈ 15.3 µM) in [3] (setting [12]); 3.12 µg/mL (≈ 7.65 µM) in data set [3] (setting [13]); 25 µg/mL (≈ 61.2 µM) in data set [4] (setting [14]). Further, the MIC in data set [4] (setting [16]) stood at 12.5 µg/mL (≈ 30.6 µM); in data set [4] (setting [17]) it was 25 µg/mL (≈ 61.2 µM). For the same compound, the results for the MIC99 in data set [2] (setting [7]), in data set [3] (setting [11]) and in data set [4] (setting [15]) were 12.5 µg/mL (≈ 30.6 µM), 100 µg/mL (≈ 245 µM) and 25 µg/mL (≈ 61.2 µM), respectively. Moreover, the “Relative Potency*” value in the data set with human cancer cells was “A (A Indicates a potency increase of >2-fold of ONC201)”. The “GPCR activity, GPR91” value on GPR91 is “GPR132/91 agonist”. The “GPCR activity, GPR132” value at GPR132 is reported as “less than ONC212; also recorded: GPR132/91 agonist”. In the data set on normal cells, the “in vitro toxicity to normal cells” value was “reduced compared to ONC212”. The compound also returned an NOAEL in data set [5] of 75 mg/kg.

Regarding `O=C1C2=C(CCN(Cc3ccc(Cl)c(Cl)c3)C2)N2CCN=C2N1Cc1ccc(C(F)(F)F)cc1` [ONC234], in data set [1], the “GPCR activity, DRD2” value is reported as “antagonist activity”. The “Relative Potency*” value with human cancer cells is listed as “A (A Indicates a potency increase of >2-fold of ONC201)”. In addition, the “GPCR activity, DRD5” value on DRD5 was “antagonist activity”. Besides, the “GPCR profile / selectivity” value in the data set on GPCRs is “broad spectrum and potent GPCR targeting small molecule”. Moreover, on CXCR7, the “GPCR activity, CXCR7” value was “CXCR7 agonist activity”.

Take `Cc1ccccc1CN1C2=NCCN2C(=O)C2=C1CCN(Cc1ccccc1)C2` [TIC-10]: the anti-cancer activity entry in data set [6] is on record as “lacks anti-cancer activity”. The MIC in [2] (MDR Staphylococcus aureus (ATCC 700699), read-out: MIC) is above 100 µg/mL; in data set [2] (setting [8]) it was above 100 µg/mL; in data set [2] (setting [9]), above 100 µg/mL; in data set [3] (setting [10]), above 100 µg/mL; in data set [3] (setting [12]) it was above 100 µg/mL; in [3] (setting [13]), above 100 µg/mL. Further, the MIC in data set [4] (setting [14]), in [4] (setting [16]) and in data set [4] (setting [17]) was above 100 µg/mL each time. In addition, the MIC90 in data set [2] (setting [7]), in [3] (setting [11]) and in data set [4] (setting [15]) was above 100 µg/mL each time. The MIC99 in data set [2] (setting [7]), in data set [3] (setting [11]) and in data set [4] (setting [15]) was above 100 µg/mL throughout. For the same compound, the “antagonism of DRD2L” value at DRD2L is reported as “did not inhibit”. Further, the “GPCR activity, CXCR7” value at CXCR7 is “CXCR7 agonist”.
